{
  "source": "patent EP2322514A1",
  "about": "“Homoglutamic acid and glutamic acid derivatives” (Bayer Schering Pharma Aktiengesellschaft, priority 2009, dated 2011)",
  "system": "NSCLC tumor cells (NCl-H460)",
  "assay": "cell competition experiment: uptake of 3H-glutamic acid into tumor cells",
  "assay_type": "cell-based",
  "conditions": "NCI-H460 cells, 10 min incubation with 1 µci 3H-glutamic acid in PBS-buffer, test compound 1 mM (excess)",
  "protocol": "Figure 1: Examination of biological activity of (2S)-2-Amino-7-fluoro-4-phosphonoheptanoic acid in a cell competition experiment. (NCI-H460 cells, 10 min incubation with 1 µci 3H-glutamic acid in PBS-buffer, concentration of (2S)-2-Amino-7-fluoro-4-phosphonoheptanoic acid 1 mM).\nThe ability of compounds from the present invention to compete with uptake of glutamic acid into tumor cells was examined. Therefore, NSCLC tumor cells (NCl-H460) were co-incubated with 3H-labeled glutamic acid and (2S)-2-Amino-7-fluoro-4-phosphonoheptanoic acid. This compound was used in excess (1 mM) to the tracer 3H-glutamic acid.",
  "data": [
    {"smiles": "N[C@@H](CC(CCCF)P(=O)(O)O)C(=O)O", "note": "(stereo partly drawn) [(2S)-2-Amino-7-fluoro-4-phosphonoheptanoic acid]", "values": [
      {"measurement": "uptake of 3H-glutamic acid", "result": "could be decreased"}
    ]}
  ]
}
